Source: publication doi:10.64898/2025.12.09.693205v1 (biorxiv, 2025)

Biological target: T1, UBE2N (Homo sapiens, UniProt P61088)
T1 sequence (P61088 1-152): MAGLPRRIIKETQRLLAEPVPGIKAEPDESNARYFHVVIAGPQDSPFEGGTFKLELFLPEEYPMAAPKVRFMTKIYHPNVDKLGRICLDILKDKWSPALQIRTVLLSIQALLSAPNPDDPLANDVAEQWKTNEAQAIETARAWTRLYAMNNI
Test: microscale thermophoresis
Assay type: binding
Conditions: PBS pH 7.4, 0.05% Tween20; labelled protein; MST-on time 9-10 s; n = 3

COC(=O)c1cc2c(cn1)[nH]c1ccc(O)cc12 [Variabine B]
Kd: 35.3 ± 6.3 µM
